Reference: US20220132898A1, “COMPOSITION COMPRISING TRANSGLYCOSYLATED STEVIOSIDE AND TRANSGLYCOSYLATED REBAUDIOSIDE A” (CJ CHEILJEDANG CORPORATION, priority 2019, published 2022)
Entries after “also recorded” stand apart in the source; their conditions may differ.

Legend:
[1] = Evaluation of actual sweetness and quality of sweetness by panels; format: in vivo; settings: sample dissolved in water, evaluated by panels
Text: Two samples prepared in Example 1-1 above were independently dissolved in water and provided to panels for evaluation of actual sweetness and the quality of sweetness.

[2] = format: physicochemical
Procedure: The solubility of Rebaudioside A (RA), Stevioside (STV), α-1,6 transglucosylated Rebaudioside A (RA-Glu) of Example 1-1, and transglucosylated Stevioside (STV-Glu) was measured. In particular, the transglucosylated Stevioside was obtained by reacting Stevioside and sucrose in the presence of a glucosyltransferase in the same manner as in Example 1-1.
6 g of each of Rebaudioside A, Stevioside, transglucosylated Rebaudioside A, and transglucosylated Stevioside was mixed with 10 ml and then dissolved by sonication at 50° C. for 60 minutes. The resultant was incubated for 1 week in a water bath at 5° C., 15° C., 25° C., 35° C., 45° C., or 55° C. Thereafter, the resulting solution was centrifuged at 12000 rpm for 10 minutes, and 1 ml of the supernatant was collected and dried in an oven at 105° C. to measure the solubility.

| Substance | Quality of Sweetness [1] | Solubility (%) [2] | solubility as compared to Stevioside and Rebaudioside A, respectively [2] | Actual Sweetness [1] |
| --- | --- | --- | --- | --- |
| α-1,6 transglucosylated Rebaudioside A [RA-Glu] | better quality of sweetness; also recorded: Gives sweet taste in the beginning, has a bit of bitter | ≥ 40↑ % | remarkably increased solubility | – |
| transglucosylated Stevioside [STV-Glu] | – | ≥ 40↑ % | remarkably increased solubility | – |
| α-1,4 transglucosylated Rebaudioside A | Bitter taste is stronger than sweet taste, has greasy | – | – | 19 |
